Data: patent EP0455560A2, “Use of N-dichloroacetyl lysogangliosides for the selective modulation of the expression and function of CD4 determinants on the cell surface” (FIDIA S.p.A., priority 1990, dated 1991)

Key:
Assay type in all cases: cell-based
[1] = system: CD₃; test: Mean fluorescence intensity of human lymphocytes stained with anti CD3 Mab after incubation with the compound in the presence of serum; conditions: 37°C, one hour
Experimental: (§1) Human lymphocytes were incubated at various concentrations of the modified ganglioside N-dichloroacetyl lyso GM₁. The cells were stained using monoclonal antibodies (Mab) specific for CD₄, CD₈, CD₃ (T₄, T₈, T₃ Coulter Clone, Coulter Electronics, Hialeah, Florida, USA) and OKT₄ (Ortho Diagnostics, Raritan, New Jersey, USA), these monoclonal antibodies being coupled to fluorescein. By measuring the mean fluorescence intensity (MFI) of the labelled cell population at each concentration of N-dichloroacetyl lyso GM₁, it was possible to quantify how much N-dichloroacetyl lyso GM₁ is necessary to produce 50% inhibition of the fluorescence (I₅₀). The I₅₀ value for […] lymphocytes was 5 µM. The concentration of the composition of N-dichloroacetyl lyso GM₁ at which the fluorescence intensity measurement was 0% was resolved experimentally.
(§2) Specifically, human cells were incubated with saline solution at various concentrations of N-dichloroacetyl lyso GM₁ in the presence of serum at 37°C for one hour. The cells were then washed, incubated with suitable monoclonal antibodies, fixed with 1% formalin and analyzed by MFI after excitation at […] laser length.

[2] = target: T1, CD₄ (Homo sapiens, UniProt P01730); test: Mean fluorescence intensity of human lymphocytes stained with anti CD4 Mab after incubation with the compound in the presence of serum; design: endogenous in cells; host or cells: human lymphocytes; conditions: for Mean fluorescence intensity (% of positive control): anti CD4 Mab, serum, 37°C, one hour
Experimental: as §1, §2

[3] = target: T1, CD₄; test: Percentage of CD4 still expressed in Molt 3 cells after incubation in the presence of BMS serum substitute; design: percentage of CD₄ still expressed in the Molt 3 cells after incubation; endogenous in cells; host or cells: Molt 3 cells; conditions: 60 minutes, 37°C, 89% without agent
Experimental: Molt 3 cells (5x10⁶) were incubated with various concentrations of N-dichloroacetyl lyso GM₁ (from 1 µg/ml to 250 µg/ml) for 60 minutes at 37°C in the presence of BMS (BMS Serum Substitute, Biochrom. Kg. Seromed, Berlin, Germany). After incubation the percentage of CD₄ expressed was shown by a specific Mab for CD₄ (T₄ Coulter Clone, Coulter Electronics, Hialeah, Florida, USA). For a positive control, an experiment-was carried out with monosialoganglioside GM₁ under the same experimental conditions as reported for N-dichloroacetyl lyso GM₁.
Table 2 reports the percentage of CD₄ still expressed in the Molt 3 cells after incubation with different chemical molecules at different concentrations, as described in Example 1. The CD₄ expressed in the absence of the chemical agents during the experiment was 89%.

[4] = target: T1, CD₄; test: Percentage of CD4 still expressed in Molt 3 cells after incubation in the presence of fetal calf serum; design: percentage of CD₄ still expressed in the Molt 3 cells after incubation; endogenous in cells; host or cells: Molt 3 cells; conditions: for percentage of CD₄ still expressed in the Molt 3 cells: 60 minutes, 37°C, 84% without agent; for effect of serum concentration on the modulating action on the CD₄ receptor: conclusion in words from Table 3, FCS 1% to 5%
Experimental: Molt 3 cells (5x10⁶) were incubated with different concentrations of N-dichloroacetyl lyso GM₁ (from 1 µg/ml to 125 µg/ml) for 60 minutes at 37°C in the presence of different concentrations of fetal calf serum (FCS) (from 1% to 5%). After incubation the percentage of CD₄ expressed was shown by a specific Mab for CD₄ (T₄ Coulter Clone, Coulter Electronics, Hialeah, Florida, USA).
As a positive control, an experiment with the monosialoganglioside GM₁ was carried out under the same experimental conditions as reported for N-dichloroacetyl lyso GM₁.
The CD₄ expressed in the absence of the chemical agents during the experiment was 84%.

| percentage of CD₄ still expressed in the Molt 3 cells ([3]; 1μg/ml) | percentage of CD₄ still expressed in the Molt 3 cells ([3]; 5μg/ml) | percentage of CD₄ still expressed in the Molt 3 cells ([3]; 25μg/ml) | percentage of CD₄ still expressed in the Molt 3 cells ([3]; 125μg/ml) | percentage of CD₄ still expressed in the Molt 3 cells ([4]; 1μg/ml, FCS 1%) | percentage of CD₄ still expressed in the Molt 3 cells ([4]; 1μg/ml, FCS 2%) | percentage of CD₄ still expressed in the Molt 3 cells ([4]; 1μg/ml, FCS 5%) | percentage of CD₄ still expressed in the Molt 3 cells ([4]; 25μg/ml, FCS 1%) | percentage of CD₄ still expressed in the Molt 3 cells ([4]; 25μg/ml, FCS 2%) | percentage of CD₄ still expressed in the Molt 3 cells ([4]; 25μg/ml, FCS 5%) | percentage of CD₄ still expressed in the Molt 3 cells ([4]; 75μg/ml, FCS 1%) | percentage of CD₄ still expressed in the Molt 3 cells ([4]; 75μg/ml, FCS 2%) | percentage of CD₄ still expressed in the Molt 3 cells ([4]; 75μg/ml, FCS 5%) | percentage of CD₄ still expressed in the Molt 3 cells ([4]; 125μg/ml, FCS 1%) | percentage of CD₄ still expressed in the Molt 3 cells ([4]; 125μg/ml, FCS 2%) | percentage of CD₄ still expressed in the Molt 3 cells ([4]; 125μg/ml, FCS 5%) | Substance | effect of serum concentration on the modulating action on the CD₄ receptor [4] | other results |
| --- | --- | --- | --- | --- | --- | --- | --- | --- | --- | --- | --- | --- | --- | --- | --- | --- | --- | --- |
| 75% | 74% | 47% | 13% | 70% | 73% | 77% | 44% | 55% | 64% | 47% | 50% | 55% | 30% | 49% | 50% | N-dichloroacetyl lyso GM₁ [N-dichloroacetyl lyso GM1] | increased serum concentrations do not alter its modulating action on the CD₄ receptor | Mean fluorescence intensity (% of positive control) ([1]; 2 μg/ml): 100 % of positive control; Mean fluorescence intensity (% of positive control) ([1]; 5 μg/ml, 60 min): 100 % of positive control; Mean fluorescence intensity (% of positive control) ([1]; 10 μg/ml, 60 min): 100 % of positive control; Mean fluorescence intensity (% of positive control) ([1]; 25 μg/ml, 60 min): 100 % of positive control; Mean fluorescence intensity (% of positive control) ([1]; 50 μg/ml): 100 % of positive control; Mean fluorescence intensity (% of positive control) ([2]; 2 μg/ml): 100 % of positive control; Mean fluorescence intensity (% of positive control) ([2]; 5 μg/ml): 60 % of positive control; Mean fluorescence intensity (% of positive control) ([2]; 10 μg/ml): 28 % of positive control; Mean fluorescence intensity (% of positive control) ([2]; 25 μg/ml): 0 % of positive control; Mean fluorescence intensity (% of positive control) ([2]; 50 μg/ml): 0 % of positive control; selectivity of modulation, CD₄ receptor versus CD₃ receptor ([2]; conclusion in words from Table 1, 2 to 50 μg/ml): selectively modulates the CD₄ receptor without altering the CD₃ receptor; IC50 ([2]; minor lymphocytes, fluorescein-coupled Mab, MFI, read-out: 50% inhibition of the fluorescence (I₅₀)): 5 µM |
| 88% | 81% | 52% | 0% | 82% | 84% | 85% | 80% | 83% | 81% | 50% | 80% | 83% | 10% | 25% | 72% | monosialoganglioside GM₁ [GM1, reference compound] | this modulating action disappears in the presence of serum |  |
